According to patent US5283255A, “Wavelength-specific cytotoxic agents” (The University of British Columbia, priority 1992, dated 1994):
Several values for one entry are separate records, joined by “and”; a condition that tells them apart may be missing. Identical values can stand only once. Like-named read-outs stand apart in the source and are kept apart here.

Key:
P815 target cells = conditions: mouse, in vivo, iv
Procedure: (§4) To determine biodegradability, tritiated BPD-MA was injected IV into P815 tumor-bearing mice. The mice were sacrificed at either 3 or 24 hours following injection and tumors, livers and kidneys were removed. The BPD-MA in these tissues was extracted and photoactivity was assessed in P815 target cells as described above in Example 1 under standard in vitro conditions.

M-1 rhabdomycoscercoma = assay: In vivo photosensitization, M-1 rhabdomyosarcoma system in DBA/J2 mice
Procedure: Studies of potential photosensitizers were performed using the M-1 rhabdomycoscercoma system in DBA/J2 mice. The compositions to be tested were diluted to a concentration of […] in PBS from a stock solution in DMSO at 8 mg/ml (except Photofrin® II, which was diluted directly from the clinical vial). […]

tumor cells = assay: Alternate in vivo assay: kill of tumor cells from dosed mice (MTT); conditions: 180 min
skin = conditions: mouse, in vivo
Procedure: Mice bearing P815 tumors were shaved and injected with equivalent amounts of photosensitizer, and exposed to 72 Jo/cm^2 (80 mw/cm^2 -15 min-full spectrum) at various time intervals. Skin biopsies were taken at 24 and 48 hours after light irradiation and visual evaluations were made blind.

[1] = system: Human atherosclerotic iliofemoral arteries and aorta; assay: In vitro human atherosclerotic tissue study, fluorescence microscopy
Procedure: Human atherosclerotic iliofemoral arteries and aorta were harvested and wrapped in saline-soaked gauze and then incubated for 2 hours at room temperature in MEM-Eagle's Medium and 10% fetal calf serum mixed with BPD-MA formulated at 30 μg/ml. The BPD was prepared by mixing 1 ml of BPD-MA stock solution with 8.1 ml MEM-Eagle's Medium and 0.9 ml fetal calf serum.
The sample was rinsed three times in cold normal saline, and the sections were examined by fluorescence microscopy to evaluate the uptake of BPD. The administered dose was finally diluted to provide solutions containing 0.5-200 μg/ml, and incubation time was varied.

atherosclerotic aortas = assay: Rabbit studies of aorta, fluorescence microscopy; assay type: in vivo
Procedure: The rabbits were injected with BPD-MA at various dosages and time intervals prior to sacrifice. The rabbits were euthanized by injection and the entire descending aorta was removed, sectioned, and examined by fluorescence microscopy.

target cells = assay: In vitro evaluation of BPD-DA, -MA, -DB and -MB (as in Example 1); assay type: cell-based
Procedure: For the "affinity" assay, in the dark, 100 μl of the target cell suspension and 100 μl of the test or control compound were mixed. "Labeling" was allowed to continue for one hour at 4° C., and labeled cells were washed in the dark three times with 3 ml medium each time and resuspended in fresh medium. The resuspended cells were then subjected to light exposure at 300-750 nanometers for 30 minutes.
In a "direct" assay the target cells were irradiated immediately upon addition of the test or control compound.
The effect of irradiation was estimated using methods appropriate to the target cells.
The four compounds shown in FIG. 2, wherein R^1 and R^2 are carbomethoxy, were tested in vitro as described in Example 1.

colon adenocarcinoma [2] = assay: Detection of tumors by fluorescence in rats; conditions: 3.5 mg/kg IV; 3 h
in vivo = conditions: mouse, iv
Procedure: as §4

colon adenocarcinoma [3] = conditions: rat, in vivo
VSV = assay: microbe, parasite or virus in culture; set-up: species or system Vesicular stomatitis virus; conditions: for log reduction at 1 µg/mL: read-out: virus kill, 1 μg/ml; for log reduction at 1000 µg/mL: read-out: virus kill, 1 mg/ml (so in the source)
[4] = system: warts caused by Papilloma virus; assay: Systemic administration, papilloma-caused warts in rabbits; assay type: in vivo, rabbit; conditions: of 12 warts, 2 mg/kg IV
Procedure: Rabbits displaying warts caused by Papilloma virus were provided according to the model described by Shope et al., J. Exp. Med, (1933) 58:607-624. Five rabbits were administered Photofrin® II porfimer sodium intravenously at 10 mg/kg total dose over a ≤5 minute period beginning 24 hours before irradiation treatment. Six rabbits were administered BPD-MA intravenously at 2 mg/kg total dose over a ≤5 minute period beginning 2.5-3.5 hours before irradiation treatment. Warts were irradiated individually with no light, 150 J/cm^2 or 250 J/cm^2 using 630 nm for porfimer sodium and 690 nm for BPD-MA.

[5] = assay type: in vitro ADME; conditions: human
Procedure: (§1) Franz in vitro percutaneous diffusion chambers were used to conduct studies of BPD formulations with oleic acid and oleyl alcohol vehicles (^14 C-BPD having a specific activity of 6 μCi was used). Excised split thickness (200 μ) human cadaver skin was mounted on the chamber (surface area 3 cm^2). The lower reservoir contained 4% bovine serum albumen in isotonic buffered saline, pH 7.0.
(§2) The chambers with the skin were equilibrated to 37° C. prior to application of the drug formulations. Formulations ([…] containing 1.67 μCi) were applied to the epidermal surface of the skin. The chamber was covered (occluded) to prevent evaporation, and the experiment was conducted in the dark.
(§3) Six diffusion cells were run for each time point (1.5 hr, 3 hr, 24 hr) for each formulation. Samples were removed from the dermal chamber at 1.5 hr, 3 hr and 24 hr. Cumulative penetration was assayed by liquid scintillation.
At the end of the respective time point, the surface of the skin was washed to remove surface drug. A 4 mm full thickness skin punch biopsy was taken from each specimen and processed for frozen section tissue fluorescence. This necessitates termination of flux measurements in that chamber. The stratum corneum was removed by 25 repetitive strippings with cellophane tape and counted in groups of five. The epidermis was heat-separated from the dermis by heating to 60° C. for 1 minute. These tissues were then digested and the ^14 C-BPD content of each of the skin compartments and reservoir was determined by liquid scintillation counting. (In the tables, "BPD-OA" and "BPD-OL" represent the BPD-oleic acid and BPD-oleyl alcohol formulations of the preceding example, "CH-014" represents ^14 C-labeled BPD-MA, and "phospholipid" represents a BPD-MA liposomal formulation.)

[6] = assay type: in vitro ADME, human
Procedure: as §1, §2, §3
At the end of the respective time point, the surface of the skin was washed to remove surface drug. A 4 mm full thickness skin punch biopsy was taken from each specimen and processed for frozen section tissue fluorescence. […] The stratum corneum was removed by 25 repetitive strippings with cellophane tape and counted in groups of five. […] These tissues were then digested and the ^14 C-BPD content of each of the skin compartments and reservoir was determined by liquid scintillation counting. […]

For `C=Cc1c(C)c2cc3nc(cc4[nH]c(cc5nc(cc1[nH]2)C(C)=C5CCC(=O)O)c(CCC(=O)OC)c4C)C1(C)C3=CC=C(C(=O)OC)C1C(=O)OC` (stereo not drawn) [BPD-MA], the “degradation in liver and kidney compared with tumor tissue” value (P815 target cells) was “both the liver and kidney degraded BPD more rapidly than did tumor tissue”, the “Number of Days Tumor Free (PR)” value (M-1 rhabdomycoscercoma; Table 6, 567 Jo/cm^2, IV 24 h before light) was 9.2 days and the “Cures (tumor regressed and tumor-free for 30 days)” value (M-1 rhabdomycoscercoma; Table 6, 567 Jo/cm^2, 8 animals per group) was 4. The “Days Tumor-free” value (M-1 rhabdomycoscercoma; Table 7, light dose 378 To/cm^3) was 13.2 days, the “Number of Cures” value (M-1 rhabdomycoscercoma; Table 7, light dose 378 To/cm^3, 9-15 animals) was 4 and the “% Kill” value (tumor cells; 33 μg/mouse IV, light dose 5.7 Jo) was 22.0%. The “% Kill” value (tumor cells; 40 μg/mouse IV, light dose 3.8 Jo) was 32.5%, the “% Kill” value (tumor cells; 80 μg/mouse IV, light dose 3.8 Jo) was 63.5 ± 2.1% and 53.7 ± 6.2% and the skin photosensitizing activity (skin) was “major photosensitizing activity”. The “time dependence of skin photosensitizing activity” value (skin) was “only present when light treatment was given 3 hours post drug administration”, the “fluorescence for detection of plaques” value ([1]; 10 μg/ml or less) was “did not provide sufficient fluorescence to detect the presence of plaques” and the “fluorescence for detection of plaques” value ([1]; 100 μg/ml and above) was “fluorescence was clearly seen”. For the same compound, the “fluorescence in plaqued areas” value ([1]; approximately 25 μg/ml) was “showed most intensely in the plaqued areas”, the “fluorescence in underlying arterial wall” value ([1]; approximately 25 μg/ml) was “no fluorescence was seen in the underlying arterial wall” and the “fluorescence in aorta tissue samples” value (atherosclerotic aortas; 30 μg/kg) was “No fluorescence was seen”. For the same compound, the “fluorescence in normal aorta samples” value (atherosclerotic aortas; 100 μg/kg) was “no fluorescence was shown in the normal aorta samples”, the “fluorescence in atherosclerotic samples” value (atherosclerotic aortas; 100 μg/kg, two samples) was “fluorescence was seen in the plaque but not the arterial wall” and the in vitro photosensitivity (target cells) was “somewhat more active”. The “ratio of tumor exterior to muscle compared with HP” value (colon adenocarcinoma [2]) was “approximately the same as that for HP”, the remaining at 3 h (in vivo) was 100% and the remaining at 24 h (in vivo) was 39%. For the same compound, the “drug-related signal over malignant tumor” value (colon adenocarcinoma [3]) was “BPD-MA-related signal increases over the malignant tumor”, the “relationship between total light energy and drug dose required to inactivate VSV” value (VSV; 1, 2 and 4 μg/ml, 1 ml samples, 2 h before light) was “inverse relationship between total light energy and the drug dose required to inactivate the VSV” and the virus inactivation (VSV; 2 and 4 μg/ml, 2 h dark incubation, 57.6 J/cm^2, 1 and 2 ml samples) was “complete virus inactivation”. For the same compound, the “effect of increasing incubation time on VSV inactivation” value (VSV; 0.5 hour to 1 hour, 1 μg/ml, 57.6 J/cm^2) was “improved VSV inactivation”, the log reduction at 2 µg/mL (VSV; Vesicular stomatitis virus, light or radiation study, 2 h, read-out: viral kill, 2 μg/ml, 1 ml, 2 h, 57.6 J/cm^2) was 7 and the log reduction at 1 µg/mL (VSV; Vesicular stomatitis virus, light or radiation study, 2 h, 28.8 J/cm^2) was 2. For the same compound, the log reduction at 1 µg/mL (VSV; Vesicular stomatitis virus, light or radiation study, 2 h, 57.6 J/cm^2) was 5, the log reduction at 1000 µg/mL (VSV; Vesicular stomatitis virus, light or radiation study, 1 ml sample, 57.6 J/cm^2) was 4 and the log reduction at 1000 µg/mL (VSV; Vesicular stomatitis virus, light or radiation study, 2 ml sample, 57.6 J/cm^2) was 2. For the same compound, the “effect of incubation temperature” value (VSV; room temperature, 37° C. or 4° C.) was “little difference”, the “effect of further increasing incubation time on VSV inactivation” value (VSV; to 2-3 hours, 1 μg/ml, 57.6 J/cm^2) was “little effect” and the warts completely regressed ([4]; 150 J/cm^2, 690 nm) was 7. For the same compound, the “warts showing >50% regression” value ([4]; 150 J/cm^2, 690 nm) was 5 and the “warts showing complete cure” value ([4]; 250 J/cm^2, 690 nm) was 12.
With `C=Cc1c(C)c2cc3nc(cc4[nH]c(cc5nc(cc1[nH]2)C(C)=C5CCC(=O)O)c(CCC(=O)OC)c4C)C1(C)C3=CC=C(C(=O)OC)C1C(=O)OC` (stereo not drawn) [CH-014] the “PERCENT RECOVERY, Dermis” value ([5]; 90 min) was “.19 ± .06%”, the “PERCENT RECOVERY, Epidermis” value ([5]; 90 min) was “.13 ± .13%” and the “PERCENT RECOVERY, Reservoir” value ([5]; 90 min) was 0%. The “PERCENT RECOVERY, Dermis” value ([5]; 180 min) was “.32 ± .11%”, the “PERCENT RECOVERY, Epidermis” value ([5]; 180 min) was “.06 ± .02%” and the “PERCENT RECOVERY, Reservoir” value ([5]; 180 min) was 0%. The “PERCENT RECOVERY, Dermis” value ([5]; 1440 min) was “.40 ± .28%”, the “PERCENT RECOVERY, Epidermis” value ([5]; 1440 min) was “.06 ± .03%” and the “PERCENT RECOVERY, Reservoir” value ([5]; 1440 min) was “.014 ± .018%”. For the same compound, the “TISSUE FLUORESCENCE, Dermis” value [6] was 1.
